US4207316A, “Novel 17-substituted 11 β-hydroxy steroids of the pregnane series, their manufacture, preparation and use” (Schering Aktiengesellschaft, priority 1978, dated 1980)
Where two headings read alike, the source gives them in different places.

What was measured:
[1] = system: paw edema (Mycobacterium butyricum suspension); assay: adjuvant edema test (systemic effectiveness); assay type: in vivo, SPF rats; conditions: for ED50: Mycobacterium
Method: The systemic effectiveness of the compounds can be determined with the aid of the adjuvant edema test as follows:
SPF rats weighing 130-150 g. are injected in the right hind paw, for producing a center of inflammation, with 0.1 ml. of a 0.5% Mycobacterium butyricum suspension (obtainable from the U.S. company Difco). Prior to injection, the paw volume of the rats is measured. Twenty-four hours after injection, the paw volume is measured once again to determine the extent of the edema. Thereafter, varying amounts of the test compound--dissolved in a mixture of 29% benzyl benzoate and 71% castor oil--are administered orally or subcutaneously to the rats. After another 24 hours, the paw volume is again determined.
The control animals are treated in the same way, except that they are injected with a benzyl benzoate-castor oil mixture free of test compound.
From the paw volumes determined, the amount of test compound required for attaining a 50% reduction in volume of the experimentally produced paw edema is calculated in the usual way.
The following tables indicate the thus-obtained test results, wherein in each case the compounds of this invention are compared with the conventional corticoids contained in commercially available preparations which are most analogous in structure.

[2] = system: erythema of stripped skin (vasoconstriction); assay: vasoconstriction test (topical efficacy), difference in degree of efficacy vs diflucortolone 21-valerate (DFV); assay type: in vivo, healthy test persons (human); conditions: 0.1 p.p.m. active agent, positive = more favorable than DFV
Method: The topical efficacy can be determined as follows using the vasoconstriction test.
The test was conducted on respectively eight healthy test persons of both sexes, who had not received any local corti costeroid treatment within the preceding two weeks. After the stratum corneum on the test persons' backs was removed down to the stratum lucidum (20-40 times application and tearing off of an adhesive film), respectively 0.1 g. of the preparations was applied to areas of a size of 4 cm^2 without protective dressing. To avoid the application of the identical preparation to identical skin areas, the application is done in a rotating fashion. The vasoconstriction is evaluated visually after 4 and 8 hours by the investigator in accordance with the following grades of effectiveness: 1=absolute fading; 2=minor residual erythema; 3=medium-grade erythema, reddening intensity in the central zone of stripped, untreated and undamaged skin; 4=erythema with minor fading; 5=no fading, or intensification of erythema.
The individual evaluations were averaged.
In each test series, diflucortolone 21-valerate (=6α,9α-difluoro-11β-hydroxy-16α-methyl-21-valeryloxy-1,4-pregnadiene-3,20-dione=DFV) is utilized as the reference compound.
The difference Δ of the average degrees of efficacy of DFV and of the test compound determined in the individual series of investigations is calculated in each case. Positive deviations Δ show a more favorable evaluation: negative deviations show a more unfavorable evaluation of the test compound as compared to DFV.
The tables set forth below list the observed test results obtained when treating the test persons with a preparation containing 0.1 p.p.m. of active agent.

[3] = sc, rats, subcutaneous, 24 h after administration, read-out: Adjuvant Edema Test ED50 s.c. (50% reduction in volume of paw edema)
[4] = rats, oral, 24 h after administration, read-out: Adjuvant Edema Test ED50 p.o. (50% reduction in volume of paw edema)
[5] = rats, subcutaneous, 24 h after administration
[6] = rats, oral, 24 h after administration

## COCO[C@]1(C(=O)CO)CC[C@H]2[C@@H]3CCC4=CC(=O)CC[C@]4(C)[C@H]3[C@@H](O)C[C@@]21C [compound 2]
[1]; [3]
  ED50: 13 mg/kg
[1]; [4]
  ED50: 67 mg/kg

## 21-Butyryloxy-11β-hydroxy-17α-methoxymethoxy-1,4-pregnadiene-3,20-dione [No. 12]
[1]; [5]
  Adjuvant Edema Test ED50 s.c. (50% reduction in volume of paw edema): about 1 mg./kg. Animal
[2]
  Vasoconstriction Test Δ After 4 h. (difference of average degrees of efficacy of DFV and test compound): +0.5
  Vasoconstriction Test Δ After 8 h. (difference of average degrees of efficacy of DFV and test compound): +0.2

## 21-acetoxy-17α-methoxymethoxy-4-pregnene-3,11,20-trione [Example 24]
[1]; rats, subcutaneous, 24 h after administration, 1440 min
  Adjuvant Edema Test ED50 s.c. (50% reduction in volume of paw edema): 3.5 mg./kg. Animal
[1]; rats, subcutaneous, 24 h after administration, listed as 25, 1440 min
  Adjuvant Edema Test ED50 s.c. (50% reduction in volume of paw edema): 4.0 mg./kg. Animal

## CCCC(=O)O[C@]1(C(=O)CO)CC[C@H]2[C@@H]3CCC4=CC(=O)CC[C@]4(C)[C@H]3[C@@H](O)C[C@@]21C [compound 1]
[1]; [3]
  ED50: 13 mg/kg
[1]; [4]
  ED50: 54 mg/kg

## 17α-Ethoxymethoxy-11β,21-dihydroxy-4-pregnene-3,20-dione [No. 3]
[1]; [6]
  Adjuvant Edema Test ED50 p.o. (50% reduction in volume of paw edema): 22 mg./kg. Animal
[1]; [5]
  Adjuvant Edema Test ED50 s.c. (50% reduction in volume of paw edema): 3.0 mg./kg. Animal
[2]
  Vasoconstriction Test Δ After 4 h. (difference of average degrees of efficacy of DFV and test compound): -0.3
  Vasoconstriction Test Δ After 8 h. (difference of average degrees of efficacy of DFV and test compound): 0.0

## 11β,21-Dihydroxy-17α-methoxymethoxy-1,4-pregnadiene-3,20-dione [No. 9]
[1]; [5]
  Adjuvant Edema Test ED50 s.c. (50% reduction in volume of paw edema): about 3 mg./kg. Animal
[2]
  Vasoconstriction Test Δ After 8 h. (difference of average degrees of efficacy of DFV and test compound): +0.4

## 21-acetoxy-11β-hydroxy-17α-methoxymethoxy-4-pregnene-3,20-dione [Example 18]
[1]; [5]
  Adjuvant Edema Test ED50 s.c. (50% reduction in volume of paw edema): 0.13 mg./kg. Animal

## C[C@]12C=CC(=O)C=C1CC[C@@H]1[C@@H]2[C@@H](O)C[C@@]2(C)[C@H]1CC[C@]2(O)C(=O)CO [compound 8]
[1]; in Rattus norvegicus, po, 24 h, read-out: Adjuvant Edema Test ED50 p.o. (50% reduction in volume of paw edema)
  ED50: 8.6 mg/kg
[1]; in Rattus norvegicus, sc, 24 h, read-out: Adjuvant Edema Test ED50 s.c. (50% reduction in volume of paw edema)
  ED50: 2.6 mg/kg

## COCO[C@]1(C(=O)COC(C)=O)CC[C@H]2[C@@H]3CCC4=CC(=O)C=C[C@]4(C)[C@H]3[C@@H](O)C[C@@]21C [compound 10]
[1]; [3]
  ED50: > 3 mg/kg
[1]; rats, subcutaneous, at 3 mg./kg.
  Adjuvant Edema Test, percentage in parentheses beside ED50 s.c. bound: 25%

## 11β,21-dihydroxy-17α-(1'-methoxyethoxy)-6α-methyl-1,4-pregnadiene-3,20-dione [Example 12]
[1]; [5]
  Adjuvant Edema Test ED50 s.c. (50% reduction in volume of paw edema): about 3 mg./kg. Animal

## 11β-hydroxy-17α-methoxymethoxy-21-propionyloxy-4-pregnene-3,20- dione [Example 19]
[1]; [5]
  Adjuvant Edema Test ED50 s.c. (50% reduction in volume of paw edema): 1.9 mg./kg. Animal
[2]
  Vasoconstriction Test Δ After 4 h. (difference of average degrees of efficacy of DFV and test compound): +0.5
  Vasoconstriction Test Δ After 8 h. (difference of average degrees of efficacy of DFV and test compound): +0.5

## CCCCOCO[C@]1(C(=O)CO)CC[C@H]2[C@@H]3CCC4=CC(=O)CC[C@]4(C)[C@H]3[C@@H](O)C[C@@]21C [compound 6]
[1]; [3]
  ED50: 20 mg/kg

## 21-Acetoxy-9α-chloro-11β-hydroxy-17α-methoxymethoxy-4-pregnene-3,20-dione [No. 14]
[1]; [6]
  Adjuvant Edema Test ED50 p.o. (50% reduction in volume of paw edema): 22 mg./kg. Animal
[2]; listed as 26
  Vasoconstriction Test Δ After 4 h. (difference of average degrees of efficacy of DFV and test compound): -0.8
  Vasoconstriction Test Δ After 8 h. (difference of average degrees of efficacy of DFV and test compound): -0.9
[2]; listed as 27
  Vasoconstriction Test Δ After 4 h. (difference of average degrees of efficacy of DFV and test compound): +0.6
  Vasoconstriction Test Δ After 8 h. (difference of average degrees of efficacy of DFV and test compound): +0.6

## CCCOCO[C@]1(C(=O)CO)CC[C@H]2[C@@H]3CCC4=CC(=O)CC[C@]4(C)[C@H]3[C@@H](O)C[C@@]21C [compound 4]
[1]; [3]
  ED50: ~10 mg/kg

## 21-Acetoxy-11β-hydroxy-17α-methoxymethoxy-1,4-pregnadiene-3,20-dione [No. 10]
[1]; [5]
  Adjuvant Edema Test ED50 s.c. (50% reduction in volume of paw edema): 3.0 mg./kg. Animal
[2]
  Vasoconstriction Test Δ After 4 h. (difference of average degrees of efficacy of DFV and test compound): +0.5
  Vasoconstriction Test Δ After 8 h. (difference of average degrees of efficacy of DFV and test compound): +1.0

## CCOCO[C@]1(C(=O)CO)CC[C@H]2[C@@H]3CCC4=CC(=O)CC[C@]4(C)[C@H]3[C@@H](O)C[C@@]21C [compound 3]
[1]; [3]
  ED50: 14.5 mg/kg

## 11β,21-Dihydroxy-17α-propoxymethoxy-4-pregnene-3,20-dione [No. 4]
[1]; [5]
  Adjuvant Edema Test ED50 s.c. (50% reduction in volume of paw edema): 3.2 mg./kg. Animal
[2]
  Vasoconstriction Test Δ After 4 h. (difference of average degrees of efficacy of DFV and test compound): +0.4
  Vasoconstriction Test Δ After 8 h. (difference of average degrees of efficacy of DFV and test compound): +0.7

## 6α-Fluoro-11β,21-dihydroxy-17α-methoxymethoxy-4-pregnene-3,20-dione [No. 25]
[1]; [6]
  Adjuvant Edema Test ED50 p.o. (50% reduction in volume of paw edema): about 8 mg./kg. Animal
[2]
  Vasoconstriction Test Δ After 4 h. (difference of average degrees of efficacy of DFV and test compound): +1.0
  Vasoconstriction Test Δ After 8 h. (difference of average degrees of efficacy of DFV and test compound): +1.3

## CC(C)OCO[C@]1(C(=O)CO)CC[C@H]2[C@@H]3CCC4=CC(=O)CC[C@]4(C)[C@H]3[C@@H](O)C[C@@]21C [compound 5]
[1]; [3]
  ED50: > 30 mg/kg
[1]; rats, subcutaneous, at 30 mg./kg.
  Adjuvant Edema Test, percentage in parentheses beside ED50 s.c. bound: 42%

## 17α-Butoxymethoxy-11β,21-dihydroxy-4-pregnene-3,20-dione [No. 6]
[1]; [5]
  Adjuvant Edema Test ED50 s.c. (50% reduction in volume of paw edema): about 1 mg./kg. Animal
[2]
  Vasoconstriction Test Δ After 4 h. (difference of average degrees of efficacy of DFV and test compound): +0.9
  Vasoconstriction Test Δ After 8 h. (difference of average degrees of efficacy of DFV and test compound): +1.0

## 21-butyryloxy-11β-hydroxy-17α-methoxymethoxy-4-pregnene-3,20-dione [Example 20]
[1]; [5]
  Adjuvant Edema Test ED50 s.c. (50% reduction in volume of paw edema): 2.0 mg./kg. Animal

## COCO[C@]1(C(=O)CO)CC[C@H]2[C@@H]3CCC4=CC(=O)C=C[C@]4(C)[C@H]3[C@@H](O)C[C@@]21C [compound 9]
[1]; [4]
  ED50: 9.8 mg/kg

## C[C@]12CCC(=O)C=C1CC[C@@H]1[C@@H]2[C@@H](O)C[C@@]2(C)[C@H]1CC[C@]2(OC1CCCCO1)C(=O)CO (stereo partly drawn) [compound 7]
[1]; [3]
  ED50: 12 mg/kg

## 11β-hydroxy-17α-methoxymethoxy-21-trimethylacetoxy-4-pregnene-3,20-dione [Example 21]
[1]; [5]
  Adjuvant Edema Test ED50 s.c. (50% reduction in volume of paw edema): 3.0 mg./kg. Animal

## 11β,21-dihydroxy-17α-methoxymethoxy-16β-methyl-4-pregnene- 3,20-dione [Example 17]
[1]; [5]
  Adjuvant Edema Test ED50 s.c. (50% reduction in volume of paw edema): 2.1 mg./kg. Animal
